According to article PMC10641813 (Journal of Medicinal Chemistry, 2023):
Values joined by “and” are separate entries in the source; they are usually repeats but may differ in a detail not shown here. Equal values may be shown once.

Columns and labels:
[1] = test system: cleaved PARP and cleaved caspase-3 in HCT116 cells; experiment: Markers of apoptosis in HCT116 cells (Western blot); type: cell-based, human; conditions: increasing concentrations, 72 h
Source text: Detection of cleaved poly(ADPribose) polymerase (PARP) by antibodies is considered a prominent marker of apoptosis. […] Overexpression of the 24 kDa N-terminal fragment inhibits DNA repair and ADPribose formation and stimulates apoptosis,[45] with consequent increase of PARP full-length/cleaved ratio and a darker cleaved band. During apoptosis, caspase-3 is a major cause of proteolysis. Detection of cleaved caspase-3 is also a reliable marker of apoptosis since it allows the quantification of cells that are dying or have died by apoptosis.[46]
(§1) Western blot was performed as previously described.[79] […] Cell lysates were subjected to SDS-polyacrylamide gel electrophoresis and transferred to a nitrocellulose membrane. The membrane was blocked, washed, and incubated with primary antibodies at 37 °C overnight [anti-β-catenin (D10A8) XP mAb #8480 (Cell Signaling), anti-cMyc #9402S (Cell Signaling), anticleaved caspase 3 (Asp175) #9661 (Cell Signaling), and anti-PARP #9542S (Cell Signaling)]. After the membrane was washed, it was incubated with secondary antibodies at 37 °C for 30 min. The membrane was washed again with Tris-buffered saline/Tween-20, and the samples were exposed and imaged using the WesternBright ECL solution (#K-12045-D50 Advansta).

[2] = test system: β-catenin and MYC in HCT116 cells; experiment: β-Catenin and c-Myc levels in HCT116 cells (Western blot); type: cell-based, human; conditions: LiCl 50 mM, 24 h
Procedure: as §1

hCA IX = target: T1, hCA IX (Homo sapiens, UniProt Q16790); experiment: Stopped flow CO2 hydrase assay, hCA IX; type: biochemical; conditions: stopped flow technique, mean from three assays
T1 construct: made in house

[3] = test system: Wnt/β-catenin signaling pathway; experiment: Wnt reporter assay (TOPFlash/FOPFlash luciferase) in HEK293T cells; conditions: HEK 293T cells, LiCl 50 mM
Procedure: HEK293T cells were seeded at 2 × 10^4 cells/cm^2 in triplicate in a 24-well plate.

P-gp [4] = target: T2, P-gp (Homo sapiens, UniProt P08183); experiment: P-gp ATPase activity, protein immunopurified from MDCK/P-gp cells; conditions: for Pgp activity (rate of ATP hydrolysis) MDCK-Pgp: 3 h, single replicates of I-III exp
T2 sequence (P08183 whole entry): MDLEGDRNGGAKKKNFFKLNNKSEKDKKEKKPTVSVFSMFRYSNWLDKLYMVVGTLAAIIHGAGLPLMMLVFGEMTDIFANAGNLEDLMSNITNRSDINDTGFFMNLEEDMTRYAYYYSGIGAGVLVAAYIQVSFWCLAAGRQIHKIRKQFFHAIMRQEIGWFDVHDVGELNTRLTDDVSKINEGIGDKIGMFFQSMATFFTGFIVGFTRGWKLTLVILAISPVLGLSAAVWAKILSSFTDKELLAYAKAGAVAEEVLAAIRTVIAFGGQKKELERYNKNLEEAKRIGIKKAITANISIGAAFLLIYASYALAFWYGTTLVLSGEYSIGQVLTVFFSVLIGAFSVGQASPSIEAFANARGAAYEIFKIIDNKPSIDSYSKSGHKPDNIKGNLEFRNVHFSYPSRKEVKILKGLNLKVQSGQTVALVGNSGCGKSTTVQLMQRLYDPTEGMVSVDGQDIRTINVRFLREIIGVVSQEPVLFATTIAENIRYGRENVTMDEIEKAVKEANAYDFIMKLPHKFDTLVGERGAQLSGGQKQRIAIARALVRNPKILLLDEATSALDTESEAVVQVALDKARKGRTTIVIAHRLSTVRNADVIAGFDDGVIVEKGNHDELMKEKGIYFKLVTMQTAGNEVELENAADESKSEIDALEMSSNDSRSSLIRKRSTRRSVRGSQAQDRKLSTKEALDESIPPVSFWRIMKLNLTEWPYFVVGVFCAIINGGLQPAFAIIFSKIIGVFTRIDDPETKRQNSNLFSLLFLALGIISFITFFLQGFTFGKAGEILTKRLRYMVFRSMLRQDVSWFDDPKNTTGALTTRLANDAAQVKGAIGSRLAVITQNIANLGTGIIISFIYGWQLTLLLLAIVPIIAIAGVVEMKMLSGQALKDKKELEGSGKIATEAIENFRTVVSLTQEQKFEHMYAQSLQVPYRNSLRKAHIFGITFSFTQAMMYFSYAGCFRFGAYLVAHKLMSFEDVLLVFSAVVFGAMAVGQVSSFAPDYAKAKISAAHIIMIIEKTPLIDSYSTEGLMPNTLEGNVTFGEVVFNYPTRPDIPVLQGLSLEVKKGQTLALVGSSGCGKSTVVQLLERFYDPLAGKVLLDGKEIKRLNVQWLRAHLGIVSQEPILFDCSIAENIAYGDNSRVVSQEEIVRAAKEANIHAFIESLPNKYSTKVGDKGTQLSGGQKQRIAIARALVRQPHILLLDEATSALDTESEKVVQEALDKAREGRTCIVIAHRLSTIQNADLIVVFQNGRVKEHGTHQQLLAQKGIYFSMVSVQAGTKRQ
Procedure: (§7) 100 μg of each immunopurified protein was incubated for 30 min at 37 °C with 50 μL of the reaction mixture (25 mM Tris/HCl, 3 mM ATP, 50 mM KCl, 2.5 mM MgSO4, 3 mM dithiothreitol, 0.5 mM EGTA, 2 mM ouabain, 3 mM NaN3; pH 7.0). […] After 30 min incubation at room temperature, the absorbance of the phosphate hydrolyzed from ATP was measured at 620 nm, using a Packard EL340 microplate reader. The absorbance was converted into nmoles hydrolyzed phosphate (Pi)/min/mg protein, according to the titration curve previously prepared.

tubulin = experiment: Tubulin assembly (polymerization) assay; type: biochemical; conditions: at 20 μM
Procedure: The reaction mixtures contained 0.8 M monosodium glutamate (pH 6.6 with HCl in a 2 M stock solution), 10 μM tubulin, 4% (v/v) DMSO, and varying concentrations of compound. […] The extent of the reaction was measured.

OVCAR-8 cells = experiment: Inhibition of growth of OVCAR-8 cells; type: cell-based, human; conditions: ovarian tumor cell line 8, 96 h
Procedure: (§2) ; 11 and 15, NCI/ADR-RES and OVCAR-8 cells) to 4.8 (19, OVCAR-8 cells). […] . […] Cells were seeded in 96-well plates.

SW620 cells = experiment: Inhibition of growth of SW620 cells (XTT); conditions: read-out: IC50 SW620; human colorectal carcinoma cells; combinations: each compound at its IC50 concentration
Procedure: (§8) In drug combination studies, each compound was used at the corresponding IC50 concentration.
(§9) Cells were grown in Dulbecco’s modified Eagle’s medium (D-MEM) supplemented with 10% fetal bovine serum (FBS) at 37 °C with 5% CO2. In all experiments, 300,000 cells were plated in 9 cm^2 dishes and exposed to test compound dissolved in DMSO (0.1% final concentration) at the indicated concentrations. […] Cells were kept at low passage, returning to the original frozen stocks every 3–4 months.

MDCK/P-gp cells [5] = experiment: Intracellular accumulation of DOX in MDCK/P-gp cells; type: cell-based, canine; conditions: 5 μM DOX 3 h, 15 at 1, 10, 100 nM
Procedure: (§3) In this model, also at the highest concentration (100 nM), the compound was not able to fully restore the accumulation of the drug to the intracellular level of MDCK cells, which were devoid of P-gp.
(§4) Figure S5. Dose-dependent viability of HT29 and HT29/DX (A), MDCK and MDCK/P-gp (B) cells, incubated with increasing concentrations (0-10 µM) of 15 for 72 h, measured with a spectrophotometric assay. Data are means ± SD (n = 3). **p<0.01, ***p<0.001: versus untreated cells (“0”). […]
(§5) drug retention was measured spectrofluorimetrically. Data are means ± SD (n=3)., ***p<0.001: versus HT29 or […]

NCI/ADR-RES cells = experiment: Inhibition of growth of NCI/ADR-RES DOX-resistant cells; type: cell-based, human; conditions: DOX-resistant cell line derived from OVCAR-8, 96 h
Procedure: as §2

[6] = test system: HT29, HT29/DX, MDCK and MDCK/P-gp cells; experiment: Cytotoxicity of 15 alone (WST-1 viability); conditions: 1–100 nM 15 alone, 72 h, four cell lines
Procedure: Cell lines were obtained from the American Tissue Culture Collection (ATCC), unless specified otherwise. Cells were grown in Dulbecco’s modified Eagle’s medium (D-MEM) supplemented with 10% fetal bovine serum (FBS) at 37 °C with 5% CO2. In all experiments, 300,000 cells were plated in 9 cm^2 dishes and exposed to test compound dissolved in DMSO (0.1% final concentration) at the indicated concentrations. […] Cells were kept at low passage, returning to the original frozen stocks every 3–4 months. […] Human chemosensitive HT29 colon cancer cells were purchased from ATCC (Manassas, VA). […] MDCK and MDCK/P-gp (a gift of Prof. P. Borst, NKI-AVL Institute, Amsterdam, The Netherlands) were grown in DMEM high glucose supplemented with 10% FBS, 1% penicillin, 1% v/v penicillin–streptomycin, and 1% v/v glutamine. […] Cells were seeded in 96-well plates. […] Cell viability was evaluated using the WST-1 assay (Sigma-Merck), as per the manufacturer’s instructions, using a Packard EL340 microplate reader (Bio-Tek Instruments, Winooski, VT). The absorbance units of the untreated cells were considered 100%; the absorbance units of the other experimental conditions were expressed as a percentage versus the absorbance units of the untreated cells.

HT29 cells = experiment: Viability of HT29 cells with DOX alone or coincubated with 15 (WST-1); type: cell-based, human; conditions: 15 at 1, 10, 100 nM coincubated with 5 μM DOX, 72 h
Procedure: (§6) Cells were seeded in 96-well plates.

[7] = test system: human primary T lymphocytes; experiment: Toxicity on human primary T lymphocytes (annexin V/propidium iodide flow cytometry); conditions: 30 μM, 72 h, healthy/normal T cells
Procedure: After 72 h, the frequency of late apoptotic cells was assayed by staining with annexin V and propidium iodide.
Potential toxicity on healthy cells was evaluated by treating human primary T lymphocytes from two healthy donors with 30 μM 15 or with a control vehicle (DMSO). Healthy donors’ peripheral blood mononuclear cells (PBMCs) were isolated by Lymphoprep (Nycomed) gradient centrifugation. T lymphocytes were negatively selected from PBMCs using magnetic Dynabeads Untouched Human T Cells Kit (Thermo Fisher Scientific) following the manufacturer’s instructions. Apoptotic cell death was evaluated using APC Annexin-V Apoptosis Detection Kit with PI (Thermo Fisher Scientific). […] Cells were then stained using annexin-V/APC and propidium iodide according to the manufacturer’s instruction. Cell populations were acquired using a FACS Canto II flow cytometer (BD Biosciences). Flow cytometric analysis was performed using Flow Jo Flow Cytometric Analysis Software.

HCT116 cells = experiment: Inhibition of growth of HCT116 cells (MTT); conditions: read-out: IC50 HCT116; human colorectal carcinoma cells; combinations: each compound at its IC50 concentration
Procedure: as §8, §9

SW480 cells = experiment: Inhibition of growth of SW480 cells (XTT); conditions: read-out: IC50 SW480; human colorectal carcinoma cells; combinations: each compound at its IC50 concentration
Procedure: as §8, §9

MDCK cells = experiment: Viability of MDCK cells with DOX alone or coincubated with 15 (WST-1); type: cell-based, canine; conditions: MDCK cells, 15 at 1, 10, 100 nM coincubated with 5 μM DOX, 72 h
Procedure: as §6

HT29/DX cells [8] = experiment: Intracellular accumulation of DOX in HT29/DX cells; type: cell-based, human; conditions: 5 μM DOX 3 h, 15 at 1, 10, 100 nM
Procedure: as §3, §4, §5

HT29/DX cells [9] = experiment: Viability of HT29/DX cells with DOX alone or coincubated with 15 (WST-1); type: cell-based, human; conditions: 15 at 1, 10, 100 nM coincubated with 5 μM DOX, 72 h
Procedure: as §6

MCF-7 cells = experiment: Inhibition of growth of MCF-7 cells; type: cell-based, human; conditions: human nonmetastatic breast cancer epithelial cells
Procedure: as §2

MDA-MB 231 cells = experiment: Inhibition of MDA-MB 231 TNBC cell growth (hypoxia, cell counting); conditions: 72 h, 1% O2
Procedure: (§10) Cells were grown in Dulbecco’s modified Eagle’s medium (D-MEM) supplemented with 10% fetal bovine serum (FBS) at 37 °C with 5% CO2. In all experiments, 300,000 cells were plated in 9 cm^2 dishes and exposed to test compound dissolved in DMSO (0.1% final concentration) at the indicated concentrations. […] Cells were kept at low passage, returning to the original frozen stocks every 3–4 months. Hypoxic culture conditions were realized in the presence of 1% O2 and 5% CO2. […] After 72 h of incubation at 37 °C with 1% O2 and 5% CO2, cells were trypsinized, and cell counting was performed with the MACSQuant analyzer (Miltenyi Biotec).[76]

[10] = test system: Wnt target genes Fgf20 and Sall4; experiment: Fgf20 and Sall4 mRNA levels in HCT116 cells (qPCR); type: cell-based, human
Procedure: Total mRNA was isolated from cells with TriReagent (#R2050–1–200 Zymo Research), and complementary DNA (cDNA) was synthesized by the Sensifast cDNA synthesis kit (#BIO-65054 Bioline). Quantitative PCR was performed with SensiFast Sybr Lo-Rox Mix (#BIO-94020 Bioline), using an Applied Biosystems ViiA 7 Real-Time PCR System instrument (doi: 10.1038/s41389-019-0175-6) and the following amplification primers: • β-actin forward: […]; • β-actin reverse: […]; • Fgf20 forward: […]; • Fgf20 reverse: […]; • Sall4 forward: […]; • Sall4 reverse: […].

BT-549 cells = experiment: Inhibition of BT-549 TNBC cell growth (hypoxia, cell counting); conditions: 72 h, 1% O2
Procedure: as §10

MDCK/P-gp cells [11] = experiment: Viability of MDCK/P-gp cells with DOX alone or coincubated with 15 (WST-1); type: cell-based, canine; conditions: 15 at 1, 10, 100 nM coincubated with 5 μM DOX, 72 h
Procedure: as §6

P-gp [12] = target: T2, P-gp; experiment: P-gp ATPase activity, protein immunopurified from HT29/DX cells; conditions: for Pgp activity (rate of ATP hydrolysis) HT29/DX: 3 h, single replicates of I-III exp
Procedure: as §7

In the case of “4-(3-Phenyl-4-(3,4,5-trimethoxybenzoyl)-1H-pyrrol-1-yl)benzenesulfonamide [Compound 15]”, the “cleaved PARP and cleaved caspase-3 levels” value [1] is reported as “increments of cleaved PARP and cleaved caspase-3”, the “β-catenin and MYC levels” value [2] is reported as “marked reduction” and the Ki (hCA IX) is reported as 24.1 nM. For the same substance, the TOP reporter activity ([3]; increasing concentrations, 24 h) was “significant and dose-dependent inhibition”, the FOP reporter activity ([3]; negative control reporter) was “did not significantly prevent the activity” and the “Pgp activity (rate of ATP hydrolysis) MDCK-Pgp” value (P-gp [4]; 15 at 1 nM) was 5.2 nmol Pi × min-1 × mg protein-1 and 5.6 nmol Pi × min-1 × mg protein-1 (2×) and 5.4 nmol Pi × min-1 × mg protein-1 (2×) and 5.5 nmol Pi × min-1 × mg protein-1 and 5.9 nmol Pi × min-1 × mg protein-1 and 5.1 nmol Pi × min-1 × mg protein-1 and 5.3 nmol Pi × min-1 × mg protein-1. For the same substance, the “Pgp activity (rate of ATP hydrolysis) MDCK-Pgp” value (P-gp [4]; 15 at 10 nM) was 3.4 nmol Pi × min-1 × mg protein-1 (3×) and 3.2 nmol Pi × min-1 × mg protein-1 (3×) and 3.0 nmol Pi × min-1 × mg protein-1 and 3.9 nmol Pi × min-1 × mg protein-1 and 3.8 nmol Pi × min-1 × mg protein-1, the “Pgp activity (rate of ATP hydrolysis) MDCK-Pgp” value (P-gp [4]; 15 at 100 nM) was 2.1 nmol Pi × min-1 × mg protein-1 and 2.4 nmol Pi × min-1 × mg protein-1 (2×) and 2.3 nmol Pi × min-1 × mg protein-1 and 1.6 nmol Pi × min-1 × mg protein-1 and 1.8 nmol Pi × min-1 × mg protein-1 (2×) and 1.7 nmol Pi × min-1 × mg protein-1 and 1.5 nmol Pi × min-1 × mg protein-1 and the “effect on P-gp activity” value (P-gp [4]; MDCK/P-gp, starting at 10 nM) was “reduced P-gp activity”. The “inhibition of tubulin assembly” value (tubulin) was “partial inhibition”, the IC50 (OVCAR-8 cells) was 1900 to 2100 nM and 1900 nM and the IC50 (SW620 cells) was 23.8 ± 1.4 µM. For the same substance, the “intracellular accumulation of DOX” value (MDCK/P-gp cells [5]) was “increasing DOX accumulation”, the IC50 (NCI/ADR-RES cells) was 1900 nM and 1900 to 2100 nM and 2100 nM and the cell viability [6] was over 75%. The “cell viability compared with DOX alone” value (HT29 cells) was “did not further reduce cell viability”, the “increase in cell death compared to the control vehicle” value [7] was 6–8% and the IC50 (HCT116 cells) was 8.7 ± 1.4 µM. For the same substance, the IC50 (SW480 cells) was 17.7 ± 1.3 µM, the “cell viability compared with DOX alone” value (MDCK cells) was “did not further reduce cell viability” and the “intracellular accumulation of DOX” value (HT29/DX cells [8]) was “strong dose-dependent increase”. The “cell viability compared with DOX alone” value (HT29/DX cells [9]) was “decreased cell viability in a dose-dependent manner”, the IC50 (MCF-7 cells) was 1900 to 2100 nM and 1900 nM and the “Inhibition of MDA-MB 231 TNBC cell growth” value (MDA-MB 231 cells) was “potent antiproliferative effect”. The “expression of Wnt target genes Fgf20 and Sall4” value [10] was “significantly reduced the expression”, the “Inhibition of BT-549 TNBC cell growth” value (BT-549 cells) was “significantly impaired cell growth” and the “cell viability compared with DOX alone” value (MDCK/P-gp cells [11]) was “decreased cell viability in a dose-dependent manner”. The “Pgp activity (rate of ATP hydrolysis) HT29/DX” value (P-gp [12]; 15 at 1 nM) was 0.7 nmol Pi × min-1 × mg protein-1 (2×) and 0.8 nmol Pi × min-1 × mg protein-1 (3×) and 0.9 nmol Pi × min-1 × mg protein-1 and 0.6 nmol Pi × min-1 × mg protein-1 (2×) and 1.0 nmol Pi × min-1 × mg protein-1, the “Pgp activity (rate of ATP hydrolysis) HT29/DX” value (P-gp [12]; 15 at 10 nM) was 0.4 nmol Pi × min-1 × mg protein-1 (3×) and 0.6 nmol Pi × min-1 × mg protein-1 (3×) and 0.5 nmol Pi × min-1 × mg protein-1 (2×) and 0.7 nmol Pi × min-1 × mg protein-1 and the “Pgp activity (rate of ATP hydrolysis) HT29/DX” value (P-gp [12]; 15 at 100 nM) was 0.1 nmol Pi × min-1 × mg protein-1 and 0.2 nmol Pi × min-1 × mg protein-1 (3×) and 0.3 nmol Pi × min-1 × mg protein-1 (5×). The “effect on P-gp activity” value (P-gp [12]; HT29/DX, starting at 10 nM) was “reduced P-gp activity”.
